Source: patent publication EP1028948B1, “PHENYL-ALKYL-IMIDAZOLES AS H3 RECEPTOR ANTAGONISTS” (SCHERING CORPORATION, priority 1997, dated 1999)
pKi: −log10 of the molar value.

Target: T1, H3 receptors (Cavia porcellus, UniProt Q9JI35)
T1 construct: The brain tissue was homogenized using a Polytron in a solution of 50 mM Tris, pH 7.5; from tissue; host or cells: guinea pig brain membranes
Assay: H3 Receptor Binding Assay
Settings: guinea pig brain membranes; 3 nM [3H]R-α-methylhistamine or 3 nM [3H]Nα-methylhistamine; 30°C for 30 min
Description: The source of the H3 receptors in this experiment was guinea pig brain. The animals weighed 400-600 g. […] The final concentration of tissue in the homogenization buffer was 10% w/v. […] The membranes were frozen and stored at -70°C until needed.
Membranes were then added (400 µg of protein) to the reaction tubes. […] Bound ligand was separated from unbound ligand by filtration, and the amount of radioactive ligand bound to the membranes was quantitated by liquid scintillation spectrometry.

T1 sequence (Q9JI35 whole entry): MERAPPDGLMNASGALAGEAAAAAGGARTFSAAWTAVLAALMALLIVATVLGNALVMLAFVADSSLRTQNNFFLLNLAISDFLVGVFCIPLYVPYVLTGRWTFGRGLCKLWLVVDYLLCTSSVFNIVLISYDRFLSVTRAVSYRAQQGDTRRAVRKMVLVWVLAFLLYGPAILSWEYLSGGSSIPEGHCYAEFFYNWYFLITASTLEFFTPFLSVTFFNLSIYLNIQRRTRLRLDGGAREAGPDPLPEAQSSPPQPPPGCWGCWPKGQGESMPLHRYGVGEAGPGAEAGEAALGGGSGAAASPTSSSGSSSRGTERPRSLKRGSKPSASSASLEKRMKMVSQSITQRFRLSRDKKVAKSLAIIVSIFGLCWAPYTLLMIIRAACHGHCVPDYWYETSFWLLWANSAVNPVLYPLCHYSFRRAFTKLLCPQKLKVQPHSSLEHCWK

With O=C(/C=C/c1ccc(Cc2c[nH]cn2)cc1)NCCc1ccc(Cl)cc1 [Compound 3] the pKi was 7.72 to 9.00.
